Experimental data as given in patent US4439426A, “Semisynthetic macrolidic antibiotics, intermediate compounds for their preparation and related pharmaceutical compositions containing them” (priority 1981, dated 1984).
In brackets after ≈: the same amount, converted by molar mass.

Columns and labels:
Assay type in all cases: cell-based
[1] = test system: Streptococcus pneumoniae ATCC 6303 LRP 35; assay: Bacteriostatic power in liquid medium (MIC); details: Streptococcus pneumoniae, ATCC6303, read-out: Minimum inhibiting concentration
Procedure, shortened: (§1)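 Minimum concentration preventing growth is given for every organism; the collection included anaerobes as well as aerobes, with both Gram types represented.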

[2] = test system: Corynebacterium diphteriae LRP 24; assay: Bacteriostatic power in liquid medium (MIC); details: Corynebacterium, LRP24, read-out: Minimum inhibiting concentration
Procedure, shortened: as §1

[3] = test system: Streptococcus pyogenes ATCC 8668 LRP 34; assay: Bacteriostatic power in liquid medium (MIC); details: Streptococcus pyogenes, ATCC8668, read-out: Minimum inhibiting concentration
Procedure, shortened: as §1

[4] = test system: Streptococcus faecalis subs. zymogenes ATCC 12958 LRP 61; assay: Bacteriostatic power in liquid medium (MIC); details: Enterococcus faecalis, ATCC12958, read-out: Minimum inhibiting concentration
Procedure, shortened: as §1

[5] = test system: Staphylococcus aureus ATCC 6538 P LRP 39; assay: Bacteriostatic power in liquid medium (MIC); details: Staphylococcus aureus, ATCC6538, read-out: Minimum inhibiting concentration
Procedure, shortened: as §1

[6] = test system: Mycoplasma hominis I ATCC 14027 LRP 211; assay: Bacteriostatic power in solid medium (MIC); details: Metamycoplasma hominis, ATCC14027, read-out: Minimum inhibiting concentration
Procedure, shortened: as §1

CC[C@H]1OC(=O)[C@H](C)[C@@H](O[C@H]2C[C@@](C)(OC)[C@@H](O)[C@H](C)O2)[C@H](C)[C@@H](O[C@@H]2O[C@H](C)C[C@H](N(C)C)[C@H]2O)[C@](C)(O)C[C@](C)(F)C(=O)[C@H](C)[C@@H](O)[C@]1(C)O [P-80206, (8S)-8-fluoroerythromycin A]
MIC [1]: 0.049 µg/mL (≈ 0.0652 µM) | MIC [2]: 0.012 µg/mL (≈ 0.016 µM) | MIC [3]: 0.097 µg/mL (≈ 0.129 µM) | MIC [4]: 0.39 µg/mL (≈ 0.519 µM) | MIC [5]: 0.195 µg/mL (≈ 0.259 µM) | MIC [6]: 25 µg/mL (≈ 33.2 µM)
